{
  "source": "paper PMC9031227",
  "about": "“Structure-Activity Relationship Investigations of Novel Constrained Chimeric Peptidomimetics of SOCS3 Protein Targeting JAK2” (Pharmaceuticals, 2022)",
  "key": {"[1]": {"assay": "Serum stability in fetal bovine serum", "type": "in vitro ADME", "conditions": "37 °C; for metabolised at 3 h, 500 µM: read-out: degraded after 3 h of incubation; for improvement of stability to proteases after 24 h: 25% FBS, 24 h of analysis, compared with the linear peptide", "description": "KIRCONG analogues (~1 mg/mL, 500 μM on average), were incubated with fetal bovine serum (FBS) at 25% (w/v) at 37 °C as previously described. At the following time points: 0, 3, 17, 20, 23 and 42 h, 50 µL aliquots of the solutions were mixed with 50 µL of 15% trichloroacetic acid (TCA) to allow the precipitation of serum proteins, they were stored at −20 °C for at least 15 min. After centrifugation (13,000 rpm for 15 min) the supernatants were recovered. Samples were analyzed by RP-HPLC on a HPLC LC-4000 series (Jasco) equipped with UV detector using a C18-Kinetek column from Phenomenex (Milan, Italy), by employing a gradient from 5 to 70% of B (acetonitrile 0.1% TFA) versus A (water 0.1% TFA) in 20 min. Peptide compounds were detected by recording the absorbance at 210 nm and percentages were quantified by assuming 100% their peak areas at t = 0. All stability tests were performed at least in triplicates and reported data are averaged values.\nTo evaluate if introduced chemical modifications in KIRCONG analogues influence their stabilities to proteolytic degradation, pure compounds were incubated with fetal bovine serum (FBS) and the decrease of chromatographic peaks was followed during time In Figure 4, the area percentages of new derivatives of KIRCONG chim versus time are reported. After 3 h of incubation, KIRCONG chim is degraded by 30% while KIRCONG disulfide of 20% and others less than 10%.\nFigure 4 Serum stability assay of KIRCONG chim derivatives. The serum stability was evaluated by incubation in 25% FBS for 42 h. Residual peptide amount is expressed as the percentage of the initial amount versus time."}, "[2]": {"target": "T1, His-tagged Catalytic Domain of JAK2 (residues 826–1132) (Homo sapiens, UniProt O60674)", "T1 construct": "His-tagged Catalytic Domain of JAK2 (residues 826–1132); purchased Carna Biosciences", "T1 sequence (O60674 826-1132)": "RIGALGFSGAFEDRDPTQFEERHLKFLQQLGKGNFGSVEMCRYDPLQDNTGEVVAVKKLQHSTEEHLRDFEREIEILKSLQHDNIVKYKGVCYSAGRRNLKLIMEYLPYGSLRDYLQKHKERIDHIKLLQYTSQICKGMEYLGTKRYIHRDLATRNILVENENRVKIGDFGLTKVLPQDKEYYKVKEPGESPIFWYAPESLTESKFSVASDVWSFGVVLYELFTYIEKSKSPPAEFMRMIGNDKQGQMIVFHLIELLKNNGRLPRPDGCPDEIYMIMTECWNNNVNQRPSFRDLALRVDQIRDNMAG", "assay": "MicroScale Thermophoresis (MST) binding to JAK2 catalytic domain", "conditions": "RED-tris-NTA labelled His-JAK2 catalytic domain, 25 °C, 50 mM Tris-HCl, 150 mM NaCl, 0.05% Brij35, 1 mM DTT, 10% glycerol, 15% TFE, pH 7.5, Langmuir isotherm fit", "description": "MST experiments were carried out with a Monolith NT 115 system (NanoTemper Technologies, München, Germania) equipped with 40% LED and 40% IR-laser power. […] The protein concentration was adjusted to 200 nM in labeling buffer (Nano Temper Technologies), while the dye concentration was set to 100 nM. Equal volumes (100 μL) of protein and fluorescent dye solutions were mixed and incubated at room temperature in the dark for 30 min. KIRCONG chim analogues were used in the following concentrations: KIRCONG amide 459 μM, KIRCONG disulfide 470 μM, KIRCONG i/i+5 525 μM, and KIRCONG i/i+7 585 μM in labeling buffer. Standard capillaries were employed for analysis, at 25 °C in 50 mM Tris-HCl, 150 mM NaCl, 0.05% Brij35, 1 mM DTT, 10% glycerol, 15% TFE buffer at pH 7.5, as already reported. The equation implemented by the software MO-S002 MO Affinity Analysis, used for fitting data at different concentrations, is based on Langmuir binding isotherm.\nTo evaluate the ability of KIRCONG analogues to recognize JAK2 catalytic domain, in vitro MST experiments were carried out (Figure 5), keeping JAK2 concentration constant and increasing ligands’ concentrations."}, "[3]": {"assay": "Solubility observations in TFE/aqueous mixtures (CD and NMR samples)", "type": "physicochemical", "description": "CD spectroscopy experiments were carried out by employing a Jasco J-815 spectropolarimeter (JASCO, Tokyo, Japan), at room temperature in the spectral range 190–260 nm and spectra are averaged over two scans, to which blanks were subtracted. CD signals were converted to mean residue ellipticity with deg* cm^2*dmol^−1*res^−1 as units. Scan speed value was 20 nm/min, band width 2.0 nm, resolution 0.2 nm, sensitivity 50 mdeg and response 4 s. Samples were prepared by dilution of freshly prepared stock solutions in 100% TFE (2,2,2-Trifluoroethanol) (1 mM on average). In the CD samples compound concentrations were 100 μM. Spectra were acquired in a quartz cuvette with a path-length of 0.1 cm in mixtures TFE/phosphate buffer, 10 mM at pH 7.4 [52].\nNMR spectra of KIRCONG i/i+5 and KIRCONG i/i+7 stapled peptides were registered at 25 °C on a Varian Unity Inova 600 MHz spectrometer provided with a cold probe. […] NMR spectra for KIRCONG i/i+7 were recorded in H2O/TFE 60/40 v/v (peptide concentration 411 μM, pH 4.65). […] To conduct NMR structural analyses the following 2D [^1H, ^1H] experiments were recorded: TOCSY (Total Correlation Spectroscopy), NOESY (Nuclear Overhauser Enhancement Spectroscopy), ROESY (Rotating Frame Overhauser Enhancement Spectroscopy) and DQFCOSY (Double Quantum-Filtered Correlated Spectroscopy). […]"}, "[4]": {"conditions": "25% (w/v) fetal bovine serum, 25% (w/v) FBS, peptide ~1 mg/mL (500 µM on average), TCA precipitation, RP-HPLC C18, UV 210 nm, peak area vs t = 0, mean of at least triplicates"}},
  "note": "Entries after “also recorded” stand apart in the source; their conditions may differ. Where a SMILES comes first, the peptide text is derived from it. Bridges are numbered along the chain shown (N, C = ends). [ ]: non-standard residue; d: D form. R8 = C=CCCCCCC[C@@](C)(N)C(=O)O; S5 = C=CCCC[C@](C)(N)C(=O)O; βAla = NCCC(=O)O",
  "data": [
    {"smiles": "CC(=O)N[C@@H](CCCCN)C(=O)NCCC(=O)N[C@@H](Cc1ccccc1)C(=O)N[C@@H](CO)C(=O)N[C@@H](CO)C(=O)N[C@@H](CCCCN)C(=O)N[C@@H](CO)C(=O)N[C@@H](CCC(=O)O)C(=O)N[C@@H](Cc1ccc(O)cc1)C(=O)N[C@@H](CCC(N)=O)C(=O)N[C@@H](CC(C)C)C(=O)NCCC(=O)NCCC(=O)N[C@@H](Cc1ccccc1)C(=O)N[C@@H](Cc1ccc(O)cc1)C(=O)N[C@@H](Cc1c[nH]c2ccccc12)C(=O)N[C@@H](CO)C(=O)N[C@@H](C)C(=O)N[C@H](C(=O)N[C@H](C(N)=O)[C@@H](C)O)C(C)C", "note": "[KIRCONG chim, reference compound] (Ac-K[βAla]FSSKSEYQL[βAla][βAla]FYWSAVT-NH2)", "values": [
      {"measurement": "residual concentration after 42 h", "setting": "[1]; 25% (w/v) FBS, peptide ~1 mg/mL (500 µM on average), 42 h, TCA precipitation, RP-HPLC C18, UV 210 nm, peak area vs t = 0, mean of at least triplicates", "result": "completely degraded"},
      {"measurement": "metabolised at 3 h, 500 µM", "setting": "[1]; [4]", "result": 30, "unit": "%"}
    ]},
    {"smiles": "CC(C)C[C@H](NC(=O)[C@H](CCC(N)=O)NC(=O)[C@H](Cc1ccc(O)cc1)NC(=O)[C@H](CCC(=O)O)NC(=O)[C@H](CO)NC(=O)[C@H](CCCCN)NC(=O)[C@H](CO)NC(=O)[C@H](CO)NC(=O)[C@@H](N)Cc1ccccc1)C(=O)NCCC(=O)N[C@@]1(C)CCCC=CCCC[C@@](C)(C(=O)N[C@H](C(=O)N[C@H](C(=O)NCC(=O)O)[C@@H](C)O)C(C)C)NC(=O)[C@H](CO)NC(=O)[C@H](Cc2c[nH]c3ccccc23)NC(=O)[C@H](Cc2ccc(O)cc2)NC(=O)[C@H](Cc2ccccc2)NC1=O", "note": "[KIRCONG i/i+5] (H-FSSKSEYQL[βAla][S5]FYWS[S5]VTG-OH; staple 11-16)", "values": [
      {"measurement": "KD", "setting": "[2]", "result": "did not allow to obtain KD values; also recorded: No binding"},
      {"measurement": "remaining at 42 h, 500 µM", "setting": "[1]; 25% (w/v) fetal bovine serum, 25% (w/v) FBS, peptide ~1 mg/mL (500 µM on average), 42 h, TCA precipitation, RP-HPLC C18, UV 210 nm, peak area vs t = 0, mean of at least triplicates, read-out: residual concentration after 42 h", "result": 85, "unit": "%"}
    ]},
    {"smiles": "CC(C)C[C@@H]1NC(=O)[C@H](CCC(N)=O)NC(=O)[C@H](Cc2ccc(O)cc2)NC(=O)[C@H](CCC(=O)O)NC(=O)[C@H](CO)NC(=O)[C@H](CCCCN)NC(=O)[C@H](CO)NC(=O)[C@H](CO)NC(=O)[C@H](Cc2ccccc2)NC(=O)CCNC(=O)[C@@H](N)CCCCNC(=O)CC[C@@H](C(=O)NCC(=O)O)NC(=O)[C@H]([C@@H](C)O)NC(=O)[C@H](C(C)C)NC(=O)[C@H](C)NC(=O)[C@H](CO)NC(=O)[C@H](Cc2c[nH]c3ccccc23)NC(=O)[C@H](Cc2ccc(O)cc2)NC(=O)[C@H](Cc2ccccc2)NC(=O)CCNC(=O)CCNC1=O", "note": "[KIRCONG amide] (H-K[βAla]FSSKSEYQL[βAla][βAla]FYWSAVTEG-OH; lactam 1-21)", "values": [
      {"measurement": "Kd", "setting": "[2]", "result": 200, "unit": "µM"},
      {"measurement": "improvement of stability to proteases after 24 h", "setting": "[1]", "result": "do not produce a significant improvement of stability"}
    ]},
    {"smiles": "CC(C)C[C@@H]1NC(=O)[C@](C)(NC(=O)[C@H](Cc2ccc(O)cc2)NC(=O)[C@H](CCC(=O)O)NC(=O)[C@H](CO)NC(=O)[C@H](CCCCN)NC(=O)[C@H](CO)NC(=O)[C@H](CO)NC(=O)[C@@H](N)Cc2ccccc2)CCCCCC/C=C/CCC[C@@](C)(C(=O)N[C@H](C(=O)N[C@H](C(=O)NCC(=O)O)[C@@H](C)O)C(C)C)NC(=O)[C@H](CO)NC(=O)[C@H](Cc2c[nH]c3ccccc23)NC(=O)[C@H](Cc2ccc(O)cc2)NC(=O)[C@H](Cc2ccccc2)NC(=O)CCNC1=O", "note": "[KIRCONG i/i+7] (H-FSSKSEY[R8]L[βAla]FYWS[S5]VTG-OH; staple (E) 8-15)", "values": [
      {"measurement": "KD", "setting": "[2]", "result": "did not allow to obtain KD values; also recorded: No binding"},
      {"measurement": "solubility at NMR concentration in 15% TFE", "setting": "[3]; H2O/TFE 85/15 v/v, NMR peptide concentration 411 µM", "result": "poorly soluble"},
      {"measurement": "solubility in TFE/phosphate buffer (CD sample)", "setting": "[3]; TFE/phosphate buffer 10 mM pH 7.4, CD sample concentration 100 µM, diluted from 100% TFE stock", "result": "not soluble"}
    ]},
    {"smiles": "CC(C)C[C@@H]1NC(=O)[C@H](CCC(N)=O)NC(=O)[C@H](Cc2ccc(O)cc2)NC(=O)[C@H](CCC(=O)O)NC(=O)[C@H](CO)NC(=O)[C@H](CCCCN)NC(=O)[C@H](CO)NC(=O)[C@H](CO)NC(=O)[C@H](Cc2ccccc2)NC(=O)CCNC(=O)[C@@H](N)CSSC[C@@H](C(=O)NCC(=O)O)NC(=O)[C@H]([C@@H](C)O)NC(=O)[C@H](C(C)C)NC(=O)[C@H](C)NC(=O)[C@H](CO)NC(=O)[C@H](Cc2c[nH]c3ccccc23)NC(=O)[C@H](Cc2ccc(O)cc2)NC(=O)[C@H](Cc2ccccc2)NC(=O)CCNC(=O)CCNC1=O", "note": "[KIRCONG disulfide] (H-C[βAla]FSSKSEYQL[βAla][βAla]FYWSAVTCG-OH; disulfide 1-21)", "values": [
      {"measurement": "Kd", "setting": "[2]", "result": 600, "unit": "µM"},
      {"measurement": "metabolised at 3 h, 500 µM", "setting": "[1]; [4]", "result": 20, "unit": "%"},
      {"measurement": "improvement of stability to proteases after 24 h", "setting": "[1]", "result": "do not produce a significant improvement of stability"}
    ]}
  ]
}
